This test addresses T1, sGC α1/β1 heterodimer stably expressed in CHO-K1 cells (CHO-K1/sGC) (Homo sapiens, UniProt Q02108+Q02153).
T1 construct: expressed in transfected cells
T1 sequence (Q02108 1-690): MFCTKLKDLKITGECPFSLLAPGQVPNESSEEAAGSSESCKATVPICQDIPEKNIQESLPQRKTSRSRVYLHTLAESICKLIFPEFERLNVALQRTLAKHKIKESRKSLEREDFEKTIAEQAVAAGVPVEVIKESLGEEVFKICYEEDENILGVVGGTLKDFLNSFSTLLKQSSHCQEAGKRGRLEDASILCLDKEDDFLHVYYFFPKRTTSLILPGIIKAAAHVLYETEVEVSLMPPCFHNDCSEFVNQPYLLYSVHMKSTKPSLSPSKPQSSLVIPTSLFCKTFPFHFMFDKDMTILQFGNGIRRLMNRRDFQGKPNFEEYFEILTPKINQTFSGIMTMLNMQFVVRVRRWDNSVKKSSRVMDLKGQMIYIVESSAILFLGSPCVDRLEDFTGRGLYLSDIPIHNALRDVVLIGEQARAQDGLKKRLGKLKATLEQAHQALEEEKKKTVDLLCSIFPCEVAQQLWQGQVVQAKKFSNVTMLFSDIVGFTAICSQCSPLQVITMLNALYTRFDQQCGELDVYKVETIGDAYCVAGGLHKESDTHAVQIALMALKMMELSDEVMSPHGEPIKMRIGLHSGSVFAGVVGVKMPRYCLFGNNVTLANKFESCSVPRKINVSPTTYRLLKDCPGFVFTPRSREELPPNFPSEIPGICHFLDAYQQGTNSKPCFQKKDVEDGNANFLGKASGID
T1 sequence (Q02153 1-619): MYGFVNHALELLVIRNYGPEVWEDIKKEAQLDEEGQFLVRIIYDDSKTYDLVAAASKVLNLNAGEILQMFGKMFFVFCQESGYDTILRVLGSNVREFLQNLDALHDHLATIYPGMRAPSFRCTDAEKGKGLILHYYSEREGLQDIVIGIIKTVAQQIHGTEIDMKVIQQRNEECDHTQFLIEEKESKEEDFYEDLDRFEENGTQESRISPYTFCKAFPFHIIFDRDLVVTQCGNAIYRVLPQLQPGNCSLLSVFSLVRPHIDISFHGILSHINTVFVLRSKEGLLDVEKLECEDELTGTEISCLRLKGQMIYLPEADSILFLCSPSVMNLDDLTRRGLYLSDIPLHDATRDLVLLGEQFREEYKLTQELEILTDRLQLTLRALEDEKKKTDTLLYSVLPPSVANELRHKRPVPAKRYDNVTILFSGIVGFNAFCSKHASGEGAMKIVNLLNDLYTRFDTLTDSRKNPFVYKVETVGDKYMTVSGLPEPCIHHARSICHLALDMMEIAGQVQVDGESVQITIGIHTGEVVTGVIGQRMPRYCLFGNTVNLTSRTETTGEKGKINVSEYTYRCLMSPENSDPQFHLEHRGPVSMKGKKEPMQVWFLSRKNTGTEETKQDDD
The experiment in a line: Cell-based sGC Functional Assay (CASA Assay). The following applies: for % Act.: activation as percentage of maximum cGMP production of Compound A (set to 100%); for EC50: inflection point of cGMP generation in CHO-K1/sGC cells, 4P fit, 1 hr at 37° C., read-out: IP; for Emax: CHO-K1, activation as percentage of maximum cGMP production of Compound A (set to 100%), read-out: % Act. The text has this: sGC is a heme-containing enzyme that converts GTP to secondary messenger cGMP. Increases in cGMP levels affect several physiological processes including vasorelaxation through multiple downstream pathways. […] Heme-dependent activators (HDAs) preferentially activate sGC containing a ferrous heme group. To determine the effect of sGC activators on enzyme activity, the CASA assay was developed to monitor the generation of cGMP in a cell line that stably expresses the heterodimeric sGC protein.
A CHO-K1 cell line stably expressing the sGC α1/β1 heterodimer was generated using a standard transfection protocol. CHO-K1 cells were transfected with plasmids pIREShyghsGCα1 and pIRESneo-hsGCβ1 simultaneously using FUGENE reagent. Clones that stably express both subunits were selected with hygromycin and neomycin for ˜2 weeks. Clone #7 was chosen for the assay and was designated CHO-K1/sGC. CHO-K1/sGC cells were maintained in F-K12 medium containing 10% heat-inactivated Fetal Bovine Serum (FBS), 100 μg/mL penicillin/streptomycin, 0.5 mg/mL hygromycin and 0.25 mg/mL G418. The cells were then cryopreserved in LN2. On the day of the assay, cells thawed and resuspended in EBSS Assay Buffer (EAB, Sigma, E3024) supplemented with 5 mM MgCl2, 10 mM HEPES (4-(2-hydroxyethyl)piperazine-1-ethanesulfonic acid) and 0.05% BSA (bovine serum albumin) and cell density was then adjusted to 4×10^5/mL with EAB. IBMX (3-isobutyl-1-methylxanthin, 0.5 mM) was added to inhibit degradation of cGMP. Compounds were diluted from DMSO stock solutions and added to the assay at a final DMSO concentration of 2.5%. Cells were incubated with compounds in the presence and absence of 1 μM of Diethylenetriamine/nitric oxide adduct (DETA-NO; Sigma, 17018) for 1 hr at 37° C. At the end of the incubation period, the reaction was terminated and the cells were lysed with the detection reagents from Cisbio Kits. The level of intracellular cGMP was determined using an HTRF-based assay kit (CisBio, 62GM2PEC), which detects the displacement of a fluorescence labeled cGMP from its specific antibody. The cGMP produced by test compounds was directly compared to the maximum cGMP production (this value was set to equal 100% activation.) of the published sGC-HDA Compound A:
(Example 1 in WO 2010/065275, published Jun. 10, 2010). The test compounds' activity were then expressed as a percentage of Compound A, the standard in every experiment. This percent activation was calculated either in the presence or absence of DETA-NO which was then plotted. IP and maximum fold induction was derived using ADA analysis software for 4P fit.

With “4-Amino-5-cyclopropyl-2-(6-((3,3-difluorocyclobutyl)methyl)-1-methyl-1H-pyrazolo[3,4-d]pyrimidin-4-yl)-5-(5-ethyl-1,3,4-oxadiazol-2-yl)-5,7-dihydro-6H-pyrrolo[2,3-d]pyrimidin-6-one [Example 52]”, the “% Act.” value turned out to be 148% and the EC50 was 90 nM.

With “4-Amino-5-ethyl-2-(1-methyl-6-(3,3,4,4,4-pentafluorobutyl)-1H-pyrazolo[3,4-d]pyrimidin-4-yl)-5-(1-propyl-1H-1,2,3-triazol-4-yl)-5,7-dihydro-6H-pyrrolo[2,3-d]pyrimidin-6-one [Example 73]”, the “% Act.” value worked out at 117% and the EC50 came out at 416 nM.

With “4-Amino-5-methyl-5-(5-methyl-1,3,4-thiadiazol-2-yl)-2-(1-methyl-6-(3,3,4,4,4-pentafluorobutyl)-1H-pyrazolo[3,4-d]pyrimidin-4-yl)-5,7-dihydro-6H-pyrrolo[2,3-d]pyrimidin-6-one [Example 27]”, the “% Act.” value worked out at 89% and the EC50 turned out to be 208 nM.

Consider `CCCCc1nc(-c2nc(N)c3c(n2)NC(=O)C3(C)c2ccc(OC)cn2)c2cnn(C)c2n1` (single isomer, unassigned) [Example 36, 4-Amino-2-(6-butyl-1-methyl-1H-pyrazolo[3,4-d]pyrimidin-4-yl)-5-(5-methoxypyridin-2-yl)-5-methyl-5,7-dihydro-6H-pyrrolo[2,3-d]pyrimidin-6-one], for which the Emax was 116% and the EC50 came out at 43 nM.

For `[2H]C([2H])([2H])n1ncc2c(-c3nc(N)c4c(n3)NC(=O)C4(c3nnc(C)o3)C3CC3)nc(CCC(F)(F)C(F)(F)F)nc21` (single isomer, unassigned) [Example 40A, 4-Amino-5-cyclopropyl-5-(5-methyl-1,3,4-oxadiazol-2-yl)-2-(1-(methyl-d3)-6-(3,3,4,4,4-pentafluorobutyl)-1H-pyrazolo[3,4-d]pyrimidin-4-yl)-5,7-dihydro-6H-pyrrolo[2,3-d]pyrimidin-6-one], the “% Act.” value is 89% and the EC50 stood at 371 nM.

Take `[2H]C([2H])([2H])n1ncc2c(-c3nc(N)c4c(n3)NC(=O)C4(c3nnc(C)o3)C3CC3)nc(CCC(F)(F)C(F)(F)F)nc21` (single isomer, unassigned) [Example 40B, 4-Amino-5-cyclopropyl-5-(5-methyl-1,3,4-oxadiazol-2-yl)-2-(1-(methyl-d3)-6-(3,3,4,4,4-pentafluorobutyl)-1H-pyrazolo[3,4-d]pyrimidin-4-yl)-5,7-dihydro-6H-pyrrolo[2,3-d]pyrimidin-6-one]: the “% Act.” value was 68% and the EC50 stood at 292 nM.

With `[2H]C([2H])([2H])n1ncc2c(-c3nc(N)c4c(n3)NC(=O)C4(C)c3cn(C(C)C)nn3)nc(CCC(F)(F)C(F)(F)F)nc21` (single isomer, unassigned) [Example 57, 4-Amino-5-(1-isopropyl-1H-1,2,3-triazol-4-yl)-5-methyl-2-(1-(methyl-d3)-6-(3,3,4,4,4-pentafluorobutyl)-1H-pyrazolo[3,4-d]pyrimidin-4-yl)-5,7-dihydro-6H-pyrrolo[2,3-d]pyrimidin-6-one], the Emax came out at 125% and the EC50 worked out at 147 nM.

In the case of `CCC1(c2cn(C)nn2)C(=O)Nc2nc(-c3nc(CCC(F)(F)C(F)(F)F)nc4c3cnn4C)nc(N)c21` (single isomer, unassigned) [Example 58, 4-Amino-5-ethyl-5-(1-methyl-1H-1,2,3-triazol-4-yl)-2-(1-methyl-6-(3,3,4,4,4-pentafluorobutyl)-1H-pyrazolo[3,4-d]pyrimidin-4-yl)-5,7-dihydro-6H-pyrrolo[2,3-d]pyrimidin-6-one], the Emax was 105% and the EC50 amounted to 713 nM.

(Values after patent publication US9611278B2 (Merck Sharp & Dohme Corp., priority 2013, dated 2017).)
